In PubChem BioAssay (NCI):
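Grown in 96-well plates, cells were treated for 48 hours with each compound at five concentrations. Insufficient inhibition: endpoint recorded as highest concentration tested. GI50: concentration for 50% inhibition of growth. TGI: total growth inhibition.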

Key:
Experiment in all cases: DTP human tumour cell line panel, 48 h
OVCAR-3 ovarian = system: OVCAR-3 ovarian
MALME-3M melanoma = system: MALME-3M melanoma
IGROV1 ovarian = system: IGROV1 ovarian
SNB-19 CNS = system: SNB-19 CNS
SNB-75 CNS = system: SNB-75 CNS
TK-10 renal = system: TK-10 renal
CAKI-1 renal = system: CAKI-1 renal
HOP-62 NSCLC = system: HOP-62 NSCLC
HL-60(TB) leukemia = system: HL-60(TB) leukemia
786-0 renal = system: 786-0 renal
K-562 leukemia = system: K-562 leukemia
DU-145 prostate = system: DU-145 prostate
SF-539 CNS = system: SF-539 CNS
SF-295 CNS = system: SF-295 CNS
HCC-2998 colon = system: HCC-2998 colon
M14 melanoma = system: M14 melanoma
MOLT-4 leukemia = system: MOLT-4 leukemia
OVCAR-5 ovarian = system: OVCAR-5 ovarian
CCRF-CEM leukemia = system: CCRF-CEM leukemia
SK-MEL-2 melanoma = system: SK-MEL-2 melanoma
PC-3 prostate = system: PC-3 prostate
HOP-92 NSCLC = system: HOP-92 NSCLC
MCF7 breast = system: MCF7 breast
A498 renal = system: A498 renal
RPMI-8226 leukemia = system: RPMI-8226 leukemia
COLO 205 colon = system: COLO 205 colon
OVCAR-8 ovarian = system: OVCAR-8 ovarian
SK-MEL-5 melanoma = system: SK-MEL-5 melanoma
UACC-62 melanoma = system: UACC-62 melanoma
NCI/ADR-RES ovarian = system: NCI/ADR-RES ovarian
UO-31 renal = system: UO-31 renal
UACC-257 melanoma = system: UACC-257 melanoma
HS 578T breast = system: HS 578T breast
NCI-H226 lung = system: NCI-H226 lung
SF-268 CNS = system: SF-268 CNS
NCI-H460 lung = system: NCI-H460 lung
SK-MEL-28 melanoma = system: SK-MEL-28 melanoma
HT29 colon = system: HT29 colon
EKVX NSCLC = system: EKVX NSCLC
OVCAR-4 ovarian = system: OVCAR-4 ovarian
HCT-15 colon = system: HCT-15 colon
NCI-H522 lung = system: NCI-H522 lung
ACHN renal = system: ACHN renal
KM12 colon = system: KM12 colon
RXF 393 renal = system: RXF 393 renal
MDA-MB-435 = system: MDA-MB-435
SW-620 colon = system: SW-620 colon
NCI-H23 lung = system: NCI-H23 lung
SR leukemia = system: SR leukemia
T-47D breast = system: T-47D breast
LOX IMVI melanoma = system: LOX IMVI melanoma
A549 NSCLC = system: A549 NSCLC
BT-549 breast = system: BT-549 breast
U251 CNS = system: U251 CNS
MDA-MB-231 breast = system: MDA-MB-231 breast
SN12C renal = system: SN12C renal
SK-OV-3 ovarian = system: SK-OV-3 ovarian
HCT-116 colon = system: HCT-116 colon

CC(=O)Nc1ccc2c(c1)[nH]c(=O)c1cc(NC(C)=O)ccc12
GI50 (OVCAR-3 ovarian): > 100 µM | TGI (OVCAR-3 ovarian): > 100 µM | GI50 (MALME-3M melanoma): > 100 µM | TGI (MALME-3M melanoma): > 100 µM | GI50 (IGROV1 ovarian): > 100 µM | TGI (IGROV1 ovarian): > 100 µM | GI50 (SNB-19 CNS): > 100 µM | TGI (SNB-19 CNS): > 100 µM | GI50 (SNB-75 CNS): 41.2 µM | TGI (SNB-75 CNS): > 100 µM | GI50 (TK-10 renal): > 100 µM | TGI (TK-10 renal): > 100 µM | GI50 (CAKI-1 renal): > 100 µM | TGI (CAKI-1 renal): > 100 µM | GI50 (HOP-62 NSCLC): > 100 µM | TGI (HOP-62 NSCLC): > 100 µM | GI50 (HL-60(TB) leukemia): 26.6 µM | TGI (HL-60(TB) leukemia): > 100 µM | GI50 (786-0 renal): > 100 µM | TGI (786-0 renal): > 100 µM | GI50 (K-562 leukemia): 59.5 µM | TGI (K-562 leukemia): > 100 µM | GI50 (DU-145 prostate): > 100 µM | TGI (DU-145 prostate): > 100 µM | GI50 (SF-539 CNS): > 100 µM | TGI (SF-539 CNS): > 100 µM | GI50 (SF-295 CNS): > 100 µM | TGI (SF-295 CNS): > 100 µM | GI50 (HCC-2998 colon): > 100 µM | TGI (HCC-2998 colon): > 100 µM | GI50 (M14 melanoma): > 100 µM | TGI (M14 melanoma): > 100 µM | GI50 (MOLT-4 leukemia): 20 µM | TGI (MOLT-4 leukemia): 50 µM | GI50 (OVCAR-5 ovarian): > 100 µM | TGI (OVCAR-5 ovarian): > 100 µM | GI50 (CCRF-CEM leukemia): 53.5 µM | TGI (CCRF-CEM leukemia): > 100 µM | GI50 (SK-MEL-2 melanoma): > 100 µM | TGI (SK-MEL-2 melanoma): > 100 µM | GI50 (PC-3 prostate): > 100 µM | TGI (PC-3 prostate): > 100 µM | GI50 (HOP-92 NSCLC): 31.9 µM | TGI (HOP-92 NSCLC): > 100 µM | GI50 (MCF7 breast): > 100 µM | TGI (MCF7 breast): > 100 µM | GI50 (A498 renal): > 100 µM | TGI (A498 renal): > 100 µM | GI50 (RPMI-8226 leukemia): > 100 µM | TGI (RPMI-8226 leukemia): > 100 µM | GI50 (COLO 205 colon): > 100 µM | TGI (COLO 205 colon): > 100 µM | GI50 (OVCAR-8 ovarian): > 100 µM | TGI (OVCAR-8 ovarian): > 100 µM | GI50 (SK-MEL-5 melanoma): > 100 µM | TGI (SK-MEL-5 melanoma): > 100 µM | GI50 (UACC-62 melanoma): > 100 µM | TGI (UACC-62 melanoma): > 100 µM | GI50 (NCI/ADR-RES ovarian): > 100 µM | TGI (NCI/ADR-RES ovarian): > 100 µM | GI50 (UO-31 renal): > 100 µM | TGI (UO-31 renal): > 100 µM | GI50 (UACC-257 melanoma): > 100 µM | TGI (UACC-257 melanoma): > 100 µM | GI50 (HS 578T breast): > 100 µM | TGI (HS 578T breast): > 100 µM | GI50 (NCI-H226 lung): > 100 µM | TGI (NCI-H226 lung): > 100 µM | GI50 (SF-268 CNS): > 100 µM | TGI (SF-268 CNS): > 100 µM | GI50 (NCI-H460 lung): > 100 µM | TGI (NCI-H460 lung): > 100 µM | GI50 (SK-MEL-28 melanoma): > 100 µM | TGI (SK-MEL-28 melanoma): > 100 µM | GI50 (HT29 colon): > 100 µM | TGI (HT29 colon): > 100 µM | GI50 (EKVX NSCLC): > 100 µM | TGI (EKVX NSCLC): > 100 µM | GI50 (OVCAR-4 ovarian): > 100 µM | TGI (OVCAR-4 ovarian): > 100 µM | GI50 (HCT-15 colon): > 100 µM | TGI (HCT-15 colon): > 100 µM | GI50 (NCI-H522 lung): > 100 µM | TGI (NCI-H522 lung): > 100 µM | GI50 (ACHN renal): > 100 µM | TGI (ACHN renal): > 100 µM | GI50 (KM12 colon): > 100 µM | TGI (KM12 colon): > 100 µM | GI50 (RXF 393 renal): > 100 µM | TGI (RXF 393 renal): > 100 µM | GI50 (MDA-MB-435): > 100 µM | TGI (MDA-MB-435): > 100 µM | GI50 (SW-620 colon): > 100 µM | TGI (SW-620 colon): > 100 µM | GI50 (NCI-H23 lung): > 100 µM | TGI (NCI-H23 lung): > 100 µM | GI50 (SR leukemia): 15.5 µM | TGI (SR leukemia): 53.4 µM | GI50 (T-47D breast): > 100 µM | TGI (T-47D breast): > 100 µM | GI50 (LOX IMVI melanoma): > 100 µM | TGI (LOX IMVI melanoma): > 100 µM | GI50 (A549 NSCLC): > 100 µM | TGI (A549 NSCLC): > 100 µM | GI50 (BT-549 breast): > 100 µM | TGI (BT-549 breast): > 100 µM | GI50 (U251 CNS): 52 µM | TGI (U251 CNS): > 100 µM | GI50 (MDA-MB-231 breast): 90.2 µM | TGI (MDA-MB-231 breast): > 100 µM | GI50 (SN12C renal): > 100 µM | TGI (SN12C renal): > 100 µM | GI50 (SK-OV-3 ovarian): > 100 µM | TGI (SK-OV-3 ovarian): > 100 µM | GI50 (HCT-116 colon): > 100 µM | TGI (HCT-116 colon): > 100 µM
